The results in this text go back to USRE48711E1, “Apoptosis signal-regulating kinase inhibitors” (Gilead Sciences, Inc., priority 2009, dated 2021).

pIC50: −log10 of the molar value.

For the assay, the target named is ASK1 (Apoptosis Signal-Regulating Kinase 1) (Homo sapiens (Human), UniProt Q99683). As to the kind of experiment: ASK1 (Apoptosis Signal-Regulating Kinase 1) TR-FRET Kinase Assay (Biochemical IC50). The conditions noted are these: TR-FRET, biotin-MBP substrate, 20 min pre-incubation, ATP added as 300 μM solution.
Sequence of ASK1 (Apoptosis Signal-Regulating Kinase 1) (Q99683 649-946): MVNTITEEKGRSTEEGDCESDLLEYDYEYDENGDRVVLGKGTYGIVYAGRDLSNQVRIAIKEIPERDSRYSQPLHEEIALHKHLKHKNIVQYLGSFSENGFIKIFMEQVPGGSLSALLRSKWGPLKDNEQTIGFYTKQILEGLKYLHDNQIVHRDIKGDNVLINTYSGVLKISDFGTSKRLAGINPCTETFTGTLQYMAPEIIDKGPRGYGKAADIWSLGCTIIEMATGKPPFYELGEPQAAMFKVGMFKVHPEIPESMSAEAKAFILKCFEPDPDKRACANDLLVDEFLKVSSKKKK

With `O=C(Nc1cccc(-c2nncn2C2CC2)c1)c1cc(-n2cnc(-c3ccccc3)c2)ccn1` [Example 38, N-(3-(4-cyclopropyl-4H-1,2,4-triazol-3-yl)phenyl)-4-(4-phenyl-1H-imidazol-1-yl)picolinamide], the pIC50 is 7.77.

In the case of `C[C@@H](c1ccccc1)n1cnnc1-c1cccc(NC(=O)c2cccc(-n3cnc(C4CC4)c3)c2)n1` [Example 217, (S)-3-(4-cyclopropyl-1H-imidazol-1-yl)-N-(6-(4-(1-phenylethyl)-4H-1,2,4-triazol-3-yl)pyridin-2-yl)benzamide], the pIC50 is 7.85.

In the case of `CC(C)n1ccc2ncc(-c3ccnc(C(=O)Nc4cccc(-c5nncn5C5CC5)c4)c3)cc21` [Example 243, N-(3-(4-cyclopropyl-4H-1,2,4-triazol-3-yl)phenyl)-4-(1-isopropyl-1H-pyrrolo[3,2-b]pyridin-6-yl)picolinamide], the pIC50 is 7.82.

`O=C(Nc1cccc(-c2nncn2C2CC2)c1)c1cc(-c2ccc(C(F)(F)F)nc2)ccn1` [Example 52, N-(3-(4-cyclopropyl-4H-1,2,4-triazol-3-yl)phenyl)-6-(trifluoromethyl)-3,4′-bipyridine-2′-carboxamide]: the negative logarithm of the IC50 (pIC50) is 7.92.

`CC(C)(C)c1ccc(-c2ccnc(C(=O)Nc3cccc(-c4nncn4C4CC4)c3)c2)cn1` [Example 149, 6-tert-butyl-N-(3-(4-cyclopropyl-4H-1,2,4-triazol-3-yl)phenyl)-3,4′-bipyridine-2′-carboxamide] showed a pIC50 of 7.60.

As for `O=C(Nc1cccc(-c2cncn2C2CC2)n1)c1cc(-c2ccc(C3CC3)nc2)ccn1` [Example 127, 6-cyclopropyl-N-(6-(1-cyclopropyl-1H-imidazol-5-yl)pyridin-2-yl)-3,4′-bipyridine-2′-carboxamide], the pIC50 was 6.68.

`O=C(Nc1cc(F)cc(-c2nncn2C2CC2)c1)c1cc(-c2ccc(C3CC3)nc2)ccn1` [Example 168, 6-cyclopropyl-N-(3-(4-cyclopropyl-4H-1,2,4-triazol-3-yl)-5-fluorophenyl)-3,4′-bipyridine-2′-carboxamide] showed a pIC50 of 6.84.

Regarding `O=C(Nc1cccc(-c2nncn2C2CCC2)c1)c1cc(-c2cccnc2)ccn1` [Example 39, N-(3-(4-cyclobutyl-4H-1,2,4-triazol-3-yl)phenyl)-3,4′-bipyridine-2′-carboxamide], the negative-log IC50 (pIC50) is 7.20.

As for `CCCc1ccc(-c2ccnc(C(=O)Nc3cccc(-c4nncn4C4CC4)c3)c2)cn1` [Example 114, N-(3-(4-cyclopropyl-4H-1,2,4-triazol-3-yl)phenyl)-6-propyl-3,4′-bipyridine-2′-carboxamide], the pIC50 was 8.30.

`O=C(Nc1cccc(-c2nncn2C2CC2)c1)c1cc(-n2cnc(C(F)(F)F)c2)ccn1` [Example 44, N-(3-(4-cyclopropyl-4H-1,2,4-triazol-3-yl)phenyl)-4-(4-(trifluoromethyl)-1H-imidazol-1-yl)picolinamide] had a pIC50 of 7.57.

`Cc1ncn(-c2cccc(C(=O)Nc3cccc(-c4nncn4C4CC4)n3)c2)c1C` [Example 211, N-(6-(4-cyclopropyl-4H-1,2,4-triazol-3-yl)pyridin-2-yl)-3-(4,5-dimethyl-1H-imidazol-1-yl)benzamide] showed a pIC50 of 8.05.

With `O=C(Nc1cccc(-c2nncn2C2CC2)c1)c1cc(-c2nc(C3CC3)no2)ccn1` [Example 254, 4-(3-cyclopropyl-1,2,4-oxadiazol-5-yl)-N-(3-(4-cyclopropyl-4H-1,2,4-triazol-3-yl)phenyl)picolinamide], the pIC50 was 5.90.

Compound `CC(C)c1cn(-c2ccnc(C(=O)Nc3cccc(-c4nncn4C4CC4)c3)c2)cn1` [Example 163, N-(3-(4-cyclopropyl-4H-1,2,4-triazol-3-yl)phenyl)-4-(4-isopropyl-1H-imidazol-1-yl)picolinamide] gave a pIC50 of 8.40.

The compound `O=C(Nc1cccc(-c2nncn2C2CC2)c1)c1cc(-c2cnccn2)ccn1` [Example 87, N-(3-(4-cyclopropyl-4H-1,2,4-triazol-3-yl)phenyl)-4-(pyrazin-2-yl)picolinamide] showed a pIC50 of 7.16.

The compound `O=C(Nc1cccc(-c2nncn2C2CC2)c1)c1cc(-c2ccc(N3CCCC3)nc2)ccn1` [Example 47, N-(3-(4-cyclopropyl-4H-1,2,4-triazol-3-yl)phenyl)-6-(pyrrolidin-1-yl)-3,4′-bipyridine-2′-carboxamide] had a pIC50 of 7.49.

Consider `CN1CCc2c(ncn2-c2ccnc(C(=O)Nc3cccc(-c4nncn4C4CC4)n3)c2)C1C(F)(F)F` (stereo not drawn) [Example 256, N-(6-(4-cyclopropyl-4H-1,2,4-triazol-3-yl)pyridin-2-yl)-4-(5-methyl-4-(trifluoromethyl)-4,5,6,7-tetrahydro-1H-imidazo[4,5-c]pyridin-1-yl)picolinamide], for which the pIC50 is 8.40.

In turn, `Cn1cncc1-c1ccnc(C(=O)Nc2cccc(-c3nncn3C)c2)c1` [Example 18, 4-(1-methyl-1H-imidazol-5-yl)-N-(3-(4-methyl-4H-1,2,4-triazol-3-yl)phenyl)picolinamide] gave a pIC50 of 7.41.

On to `COc1ccc(C(=O)Nc2cccc(-c3nncn3C3CC3)n2)cc1-n1cnc(C2CC2)c1` [Example 228, 3-(4-cyclopropyl-1H-imidazol-1-yl)-N-(6-(4-cyclopropyl-4H-1,2,4-triazol-3-yl)pyridin-2-yl)-4-methoxybenzamide], for which the pIC50 was 8.15.

As to `O=C(Nc1cccc(-c2nncn2C2CC2)c1)c1cc(-c2cnc(C3CC3)c(F)c2)ccn1` [Example 134, 6-cyclopropyl-N-(3-(4-cyclopropyl-4H-1,2,4-triazol-3-yl)phenyl)-5-fluoro-3,4′-bipyridine-2′-carboxamide], the pIC50 is 7.47.

Compound `Cc1ccncc1-c1ccnc(C(=O)Nc2cccc(-c3nncn3C3CC3)c2)c1` [Example 57, N-(3-(4-cyclopropyl-4H-1,2,4-triazol-3-yl)phenyl)-4-methyl-3,4′-bipyridine-2′-carboxamide] showed a pIC50 of 6.61.

Consider `O=C(Nc1cccc(-c2nncn2C2CC2)n1)c1cc(-c2ccc(C3CC3)nc2)c(Cl)cc1F` [Example 265, 4-chloro-N-(6-(4-cyclopropyl-4H-1,2,4-triazol-3-yl)pyridin-2-yl)-5-(6-cyclopropylpyridin-3-yl)-2-fluorobenzamide], for which the pIC50 is 7.57.

The compound `C[C@H](n1cnnc1-c1cccc(NC(=O)c2cc(-c3ccc(C4CC4)nc3)ccn2)c1)C(C)(C)C` [Example 242, (S)-6-cyclopropyl-N-(3-(4-(3,3-dimethylbutan-2-yl)-4H-1,2,4-triazol-3-yl)phenyl)-3,4′-bipyridine-2′-carboxamide] gave a pIC50 of 5.95.

In turn, `Cc1cc(-c2ccc(C3CC3)nc2)cc(C(=O)Nc2cccc(-c3nncn3C3CC3)c2)n1` [Example 249, 6-cyclopropyl-N-(3-(4-cyclopropyl-4H-1,2,4-triazol-3-yl)phenyl)-6′-methyl-3,4′-bipyridine-2′-carboxamide] gave a negative logarithm of the IC50 (pIC50) of 7.15.

`CCC(CC)n1cnnc1-c1cccc(NC(=O)c2cc(-c3ccc(C4CC4)nc3)ccn2)c1` [Example 231, 6-cyclopropyl-N-(3-(4-(pentan-3-yl)-4H-1,2,4-triazol-3-yl)phenyl)-3,4′-bipyridine-2′-carboxamide] showed a pIC50 of 5.85.

The compound `CC(C)S(=O)(=O)c1ccc(-c2ccnc(C(=O)Nc3cccc(-c4nncn4C4CC4)c3)c2)cc1` [Example 118, N-(3-(4-cyclopropyl-4H-1,2,4-triazol-3-yl)phenyl)-4-(4-(isopropylsulfonyl)phenyl)picolinamide] gave a pIC50 of 8.05.

In turn, `CC(C)(C)Cc1ccc(-c2ccnc(C(=O)Nc3cccc(-c4nncn4C4CC4)c3)c2)cn1` [Example 115, N-(3-(4-cyclopropyl-4H-1,2,4-triazol-3-yl)phenyl)-6-neopentyl-3,4′-bipyridine-2′-carboxamide] showed a pIC50 of 7.82.

`O=C(Nc1cccc(-c2nncn2CC2CC2)c1)c1cc(-c2cccnc2)ccn1` [Example 181, N-(3-(4-(cyclopropylmethyl)-4H-1,2,4-triazol-3-yl)phenyl)-3,4′-bipyridine-2′-carboxamide] showed a negative logarithm of the IC50 (pIC50) of 6.88.

As for `Cc1ncn(-c2cccc(C(=O)Nc3cccc(-c4nncn4[C@@H](C)C(F)(F)F)n3)c2)c1C` [Example 216, (S)-3-(4,5-dimethyl-1H-imidazol-1-yl)-N-(6-(4-(1,1,1-trifluoropropan-2-yl)-4H-1,2,4-triazol-3-yl)pyridin-2-yl)benzamide], the pIC50 is 8.10.

In the case of `CN1CCc2c(ncn2-c2ccnc(C(=O)Nc3cccc(-c4nncn4C4CC4)c3)c2)C1C(F)(F)F` (stereo not drawn) [Example 257, N-(3-(4-cyclopropyl-4H-1,2,4-triazol-3-yl)phenyl)-4-(5-methyl-4-(trifluoromethyl)-4,5,6,7-tetrahydro-1H-imidazo[4,5-c]pyridin-1-yl)picolinamide], the pIC50 is 8.22.

`Cc1cccc(C)c1OC[C@H](C)n1cnnc1-c1cccc(NC(=O)c2cc(-c3ccc(C4CC4)nc3)ccn2)c1` [Example 239, (S)-6-cyclopropyl-N-(3-(4-(1-(2,6-dimethylphenoxy)propan-2-yl)-4H-1,2,4-triazol-3-yl)phenyl)-3,4′-bipyridine-2′-carboxamide]: the pIC50 was 4.96.

In the case of `O=C(Nc1cccc(-c2nncn2C2CC2)n1)c1cc(F)cc(-n2cnc(C3CC3)c2)c1` [Example 205, 3-(4-cyclopropyl-1H-imidazol-1-yl)-N-(6-(4-cyclopropyl-4H-1,2,4-triazol-3-yl)pyridin-2-yl)-5-fluorobenzamide], the pIC50 is 8.05.

`COC(c1cn(-c2cccc(C(=O)Nc3cccc(-c4nncn4C4CC4)n3)c2)cn1)C(F)(F)F` (stereo not drawn) [Example 235, N-(6-(4-cyclopropyl-4H-1,2,4-triazol-3-yl)pyridin-2-yl)-3-(4-(2,2,2-trifluoro-1-methoxyethyl)-1H-imidazol-1-yl)benzamide]: the pIC50 was 7.82.

For the compound `O=C(Nc1cccc(-c2nncn2C2CC2)c1)c1cc(-c2ccc(O)nc2)ccn1` [Example 31, N-(3-(4-cyclopropyl-4H-1,2,4-triazol-3-yl)phenyl)-6-hydroxy-3,4′-bipyridine-2′-carboxamide], the negative logarithm of the IC50 (pIC50) is 7.20.

In general, pIC50 refers to the IC50 on a negative log10 scale, so that one unit is a factor of ten. High values mean a low IC50, low ones a high IC50.
